Like-named read-outs stand apart in the source and are kept apart here.
Target: T1, DβH (Homo sapiens, UniProt P09172)
T1 construct: reaction mixture (total volume 500 μl) contained: cellular homogenate (75 μg total protein); host or cells: SK-N-SH cell homogenate
T1 sequence (P09172 1-617): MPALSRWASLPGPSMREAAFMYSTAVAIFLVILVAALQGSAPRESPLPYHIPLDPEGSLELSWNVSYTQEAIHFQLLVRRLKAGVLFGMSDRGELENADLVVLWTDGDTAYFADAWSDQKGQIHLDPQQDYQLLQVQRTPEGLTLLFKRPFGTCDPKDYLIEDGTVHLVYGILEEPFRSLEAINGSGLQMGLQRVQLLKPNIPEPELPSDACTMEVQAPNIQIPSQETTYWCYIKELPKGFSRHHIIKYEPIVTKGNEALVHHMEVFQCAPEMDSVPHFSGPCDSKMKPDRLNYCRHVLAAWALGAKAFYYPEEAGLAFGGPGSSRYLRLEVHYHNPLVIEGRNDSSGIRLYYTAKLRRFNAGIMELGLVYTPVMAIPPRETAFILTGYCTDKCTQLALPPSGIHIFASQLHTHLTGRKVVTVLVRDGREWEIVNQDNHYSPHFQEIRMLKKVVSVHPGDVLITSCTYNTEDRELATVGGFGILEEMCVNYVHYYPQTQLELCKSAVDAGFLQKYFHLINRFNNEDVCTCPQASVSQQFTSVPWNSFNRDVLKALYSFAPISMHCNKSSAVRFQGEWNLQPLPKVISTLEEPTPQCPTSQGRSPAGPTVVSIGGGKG
Assay: DβH inhibition cell assay (SK-N-SH cellular homogenates, tyramine to octopamine)
Assay type: biochemical
Conditions: for remaining activity at 0.1 µM: inhibitor 0.1 μM, read-out: DβH activity in % of Ctrl (0.1 μM); for remaining activity at 1 µM: read-out: DβH activity in % of Ctrl (1 μM); for remaining activity at 10 µM: inhibitor 10 μM, read-out: DβH activity in % of Ctrl (10 μM)
Experimental: The ability of a compound to inhibit DβH activity may be assessed using the following cell assay. […] . […] Fetal bovine serum was removed from cells for 4 h prior to collection.
For the preparation of cellular homogenates, media was removed and cell monolayers were washed with 50 mM Tris-HCl pH 7.4. Cells were subsequently scrapped off the flasks and were resuspended in 50 mM Tris pH 7.4. Cell suspensions were homogenized with SilentCrusher M (Heidolph) for a short stroke and resultant homogenates were aliquoted and stored frozen at −80° C.
Total protein was quantified in cellular homogenates with BioRad Protein Assay (BioRad) using a standard curve of BSA (50-250 μg/mL).
DβH activity was measured by a modification of the method of Nagatsu and Udenfriend (Nagatsu, T. and S. Udenfriend: “Photometric assay of dopamine-hydroxylase activity in human blood.” Clin. Chem. 18(9): 980-3, 1972) which is based on the enzymatic hydroxylation of tyramine into octopamine. The octopamine formed is subsequently oxidized to p-hydroxybenzaldehyde and measured by spectrophotometry. In brief, reaction mixture (total volume 500 μl) contained: cellular homogenate (75 μg total protein) sodium acetate pH 5.0 (200 mM), NEM (30 mM), CuSO4 (5 μM), catalase aqueous solution (0.5 mg/mL), pargyline-HCl (1 mM), sodium fumarate (10 mM), ascorbic acid (10 mM), inhibitor or vehicle and tyramine (25 mM). After a 10 min pre-incubation period at 37° C., the reaction was initiated by the addition of tyramine. Reaction was carried out for 45 min at 37° C. before termination with 50 μl PCA (2 M).
Samples were centrifuged for 3 min at 16100 g and supernatants were subjected to solid phase extraction. Solid phase extraction was performed using either SPE cartridges ISOLUTE SCX-3 (100 mg, 1 mL) or SPE 2 mL fixed 96 well plates ISOLUTE SCX-3 (100 mg) previously equilibrated with MilliQ water. Columns/plates were centrifuged at 150 g for 2 min. Eluate was discarded and matrix was washed with 1 mL of MilliQ water after which octopamine was eluted with 2×0.25 mL ammonium hydroxide (4 M). The oxidation of octopamine to p-hydroxybenzaldehyde was carried out for 6 min with 100 μl sodium periodate (2%) and was stopped with 100 μl sodium metabisulfite (10%). Absorbance was measured at 330 nm on a Spectramax microplate reader (Molecular Devices, Sunnyvale, Calif.). All enzymatic reactions were performed in duplicate. Results are reported in the table below as activity in % of control at the inhibitor concentration tested.

[1] = inhibitor 1 μM, SK-N-SH cell homogenate

Compound	remaining activity at 0.1 µM (SK-N-SH cell homogenate)	remaining activity at 1 µM [1]	remaining activity at 10 µM (SK-N-SH cell homogenate)	remaining activity at 1 µM
Fc1cc(F)c(F)c([C@@H]2Cc3c[nH]c(=S)n3C2)c1F [Example 61, (S)-6-(2,3,5,6-tetrafluorophenyl)-6,7-dihydro-2H-pyrrolo[1,2-c]imidazole-3(5H)-thione]	52.2%	8.4%		
Fc1cc(Cl)cc([C@]23C[C@H]2c2c[nH]c(=S)n2C3)c1 [Example 73, (5aS,6aR)-5a-(3-chloro-5-fluorophenyl)-5,5a,6,6a-tetrahydrocyclopropa[3,4]pyrrolo[1,2-c]imidazole-3 (2H)-thione]	41.7%	5.1%		
Cc1[nH]c(=S)n2c1C[C@@H](c1c(F)c(F)cc(F)c1F)C2 [Example 97, (S)-1-methyl-6-(2,3,5,6-tetrafluorophenyl)-2,5,6,7-tetrahydro-3H-pyrrolo[1,2-c]imidazole-3-thione]	41.9%	7.9%		
NC(=S)N1CC[C@@H](c2c(F)cc(F)cc2F)C1 [Example 21, (S)-3-(2,4,6-trifluorophenyl)pyrrolidine-1-carbothioamide]		17.5%		
Fc1cc(F)cc([C@]23C[C@H]2c2n[nH]c(=S)n2C3)c1 [Example 60, (5aS,6aR)-5a-(3,5-difluorophenyl)-5,5a,6,6a-tetrahydrocyclopropa[3,4]pyrrolo[2,1-c][1,2,4]triazole-3(2H)-thione]		60.2%		
Fc1cccc(F)c1[C@H]1Cc2c[nH]c(=S)n2C1 [Example 87, (R)-6-(2,6-difluorophenyl)-2,5,6,7-tetrahydro-3H-pyrrolo[1,2-c]imidazole-3-thione]	36.5%	0%		
CCCCc1[nH]c(=S)n2c1C[C@@H](c1cc(F)cc(F)c1)C2 [Example 80, (S)-1-butyl-6-(3,5-difluorophenyl)-6,7-dihydro-2H-pyrrolo[1,2-c]imidazole-3(5H)-thione]				56.7%
Fc1ccc(F)c(C23CC2CN(C(=S)NCCS)C3)c1 (stereo not drawn) [Example 40, 1-(2,5-difluorophenyl)-N-(2-mercaptoethyl)-3-azabicyclo[3.1.0]hexane-3-carbothioamide]	87.9%			
Cc1[nH]c(=S)n2c1C[C@@H](c1c(F)ccc(Cl)c1F)C2 [Example 105, (S)-6-(3-chloro-2,6-difluorophenyl)-1-methyl-2,5,6,7-tetrahydro-3H-pyrrolo[1,2-c]imidazole-3-thione]	17.4%	0%		
CNC(=S)N1C=CC(c2cc(F)cc(F)c2)C1 (stereo not drawn) [Example 48, 3-(3,5-Difluorophenyl)-N-methyl-2,3-dihydro-1H-pyrrole-1-carbothioamide]		43%		
NC(=S)N1C[C@H]2C[C@@]2(c2cc(F)cc(F)c2)C1 [Example 35, (1R,5S)-1-(3,5-difluorophenyl)-3-azabicyclo[3.1.0]hexane-3-carbothioamide]	95%	34.3%	0%	
[2H]C1([2H])C2([2H])c3c[nH]c(=S)n3CC12c1cc(Cl)ccc1F (stereo not drawn) [Example 102, 5a-(5-chloro-2-fluorophenyl)-5,5a,6,6a-tetrahydrocyclopropa[3,4]pyrrolo[1,2-c]imidazole-3(2H)-thione-6,6,6a-d3]	32%	0%		
Cc1[nH]c(=S)n2c1C[C@H](c1c(F)ccc(Cl)c1F)C2 [Example 104, (R)-6-(3-chloro-2,6-difluorophenyl)-1-methyl-2,5,6,7-tetrahydro-3H-pyrrolo[1,2-c]imidazole-3-thione]	47.5%	6%		
Cc1[nH]c(=S)n2c1C[C@@H](c1c(F)cccc1F)C2 [Example 98, (S)-6-(2,6-difluorophenyl)-1-methyl-2,5,6,7-tetrahydro-3H-pyrrolo[1,2-c]imidazole-3-thione]		39.9%		
C[C@@H]1c2c[nH]c(=S)n2C[C@H]1c1c(F)c(F)cc(F)c1F [Example 107, (6R,7S)-7-methyl-6-(2,3,5,6-tetrafluorophenyl)-2,5,6,7-tetrahydro-3H-pyrrolo[1,2-c]imidazole-3-thione]		54.7%		

Now from value to compound, other results behind:

remaining activity at 0.1 µM (SK-N-SH cell homogenate)	remaining activity at 1 µM [1]	remaining activity at 10 µM (SK-N-SH cell homogenate)	Compound	remaining activity at 1 µM
	13.9%		Fc1cc(F)c(F)c([C@]23C[C@H]2c2c[nH]c(=S)n2C3)c1 [Example 63, (5aS,6aR)-5a-(2,3,5-trifluorophenyl)-5,5a,6,6a-tetrahydrocyclopropa[3,4]pyrrolo[1,2-c]imidazole-3 (2H)-thione]	
97.6%	50.3%	3.3%	NC(=S)N1CC[C@@H](c2ccccc2)C1 [Example 6, (S)-3-phenylpyrrolidine-1-carbothioamide]	
	35%		Fc1cc(F)c([C@]23C[C@H]2c2c[nH]c(=S)n2C3)cc1F [Example 72, (5aS,6aR)-5a-(2,4,5-trifluorophenyl)-5,5a,6,6a-tetrahydrocyclopropa[3,4]pyrrolo[1,2-c]imidazole-3 (2H)-thione]	
51.1%	7.9%		Fc1cccc([C@]23C[C@H]2c2c[nH]c(=S)n2C3)c1F [Example 66, (5aS,6aR)-5a-(2,3-difluorophenyl)-5,5a,6,6a-tetrahydrocyclopropa[3,4]pyrrolo[1,2-c]imidazole-3(2H)-thione]	
	55.5%		NC(=S)N1CCC(c2ccoc2)C1 (stereo not drawn) [Example 16, 3-(furan-3-yl)pyrrolidine-1-carbothioamide]	
0%	0%		Fc1ccc(Cl)c(F)c1[C@@H]1Cc2c[nH]c(=S)n2C1 [Example 85, (S)-6-(3-chloro-2,6-difluorophenyl)-2,5,6,7-tetrahydro-3H-pyrrolo[1,2-c]imidazole-3-thione]	
	27.4%		NC(=S)N1CCC(c2ccc(F)c(F)c2F)C1 (stereo not drawn) [Example 22, 3-(2,3,4-trifluorophenyl)pyrrolidine-1-carbothioamide]	
	10.9%		Cc1[nH]c(=S)n2c1[C@@H]1C[C@]1(c1cc(F)ccc1F)C2 [Example 78, (5aS,6aR)-5a-(2,5-difluorophenyl)-1-methyl-5,5a,6,6a-tetrahydrocyclopropa[3,4]pyrrolo[1,2-c]imidazole-3 (2H)-thione]	
	70.9%	13.7%	S=C1NCC2CC(c3ccccc3)CN12 (stereo not drawn) [Example 44, 6-Phenyltetrahydro-1H-pyrrolo[1,2-c]imidazole-3(2H)-thione]	
86.4%	21.8%		Fc1ccc(Br)cc1[C@]12C[C@H]1c1n[nH]c(=S)n1C2 [Example 120, (5aS,6aR)-5a-(5-bromo-2-fluorophenyl)-5,5a,6,6a-tetrahydrocyclopropa[3,4]pyrrolo[2,1-c][1,2,4]triazole-3(2H)-thione]	
14.5%	0%		[2H]C([2H])([2H])n1cc2n(c1=S)C[C@@]1(c3cc(Cl)ccc3F)C[C@@H]21 [Example 101, (5aS,6aR)-5a-(5-chloro-2-fluorophenyl)-2-(methyl-d3)-5,5a,6,6a-tetrahydrocyclopropa[3,4]pyrrolo[1,2-c]imidazole-3 (2H)-thione]	

Source: patent US10975083B2, “Blood-brain barrier-penetrant dopamine-β-hydroxylase inhibitors” (BIAL—PORTELA & Cᵃ, S.A., priority 2016, dated 2021)
